This note sets out measurements from patent US12252524B2, “GIP/GLP1 co-agonist compounds” (Eli Lilly and Company, priority 2018, dated 2025).

Numbered stars: 1 amine (or outer) side, 2 acyl side, 3 side chain; on linkers, the order of the positions; unused ones are H or OH. Square brackets hold non-standard residues; d marks the D form. Side chains are listed from the residue outwards. Peptide text beside a SMILES is read from it. * marks the point of attachment. C20 diacid = O=C(O)CCCCCCCCCCCCCCCCCCC(=O)*; γGlu = O=C(O)[C@H](CCC(=O)[*:2])N[*:1]; αMeL = CC(C)C[C@](C)(N)C(=O)O; AEEA = NCCOCCOCC(=O)O; Aib = CC(C)(N)C(=O)O Some results are limits rather than exact numbers.

In one experiment the target is human GLP-1R (Homo sapiens, UniProt P43220). The experiment can be described thus: [125I]-GLP-1 binding (SPA), human GLP-1 receptor. The note with it: read-out: hGLP1R Ki, (nM) (SEM, n). Also on record: expressed in transfected cells; crude membranes. The procedure, abridged: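 Frozen cell pellets are lysed on ice in hypotonic Tris buffer, pH 7.5, homogenized, and centrifuged to a membrane pellet resuspended at about 1 to 3 mg/mL. Binding is then measured in HEPES-based buffer at pH 7.4, and curves are fitted to give IC50 and Ki.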

Another experiment deals with T1, human Gcg receptor (Homo sapiens, UniProt P47871).
T1 construct: expressed in transfected cells; crude membranes
Description: [125I]-Glucagon binding (SPA), human Gcg receptor. The conditions noted are these: read-out: hGLcgR Ki, nM (SEM, n). Put shortly:
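Cell pellets were lysed in hypotonic Tris buffer, pH 7.5, homogenized, and spun at low then high speed to give crude membranes. Ki was derived from the fitted IC50.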

The target in experiment [1] is human GLP-1 receptor (GLP-1R) (Homo sapiens, UniProt P43220). Description: cAMP pharmacological functional assay in presence of casein, hGLP-1R. It counts as cell-based. The conditions noted are these: HEK293 cells expressing hGLP-1R, 0.1% Casein, geometric mean; read-out: hGLP1R cAMP Rel EC50 nM (SEM, n).
Experiment [2] addresses T2, gastric inhibitory peptide receptor (GIPR) (Homo sapiens, UniProt P48546).
T2 sequence (P48546 22-466): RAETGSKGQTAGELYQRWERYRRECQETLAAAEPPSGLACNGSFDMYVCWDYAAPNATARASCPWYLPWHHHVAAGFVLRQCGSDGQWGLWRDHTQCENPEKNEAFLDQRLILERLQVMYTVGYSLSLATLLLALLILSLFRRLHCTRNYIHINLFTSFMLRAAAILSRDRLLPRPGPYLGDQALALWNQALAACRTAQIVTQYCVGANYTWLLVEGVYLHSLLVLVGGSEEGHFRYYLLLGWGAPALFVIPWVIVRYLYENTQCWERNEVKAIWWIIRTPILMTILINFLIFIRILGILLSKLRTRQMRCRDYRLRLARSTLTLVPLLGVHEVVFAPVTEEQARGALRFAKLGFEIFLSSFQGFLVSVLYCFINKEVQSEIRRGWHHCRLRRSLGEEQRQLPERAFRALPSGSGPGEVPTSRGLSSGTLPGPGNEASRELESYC
Description: cAMP pharmacological functional assay in presence of casein, hGIPR. The class given is cell-based. The note with it: HEK293 cells expressing hGIPR, 0.1% Casein, geometric mean; read-out: hGIPR cAMP Rel EC50 nM (SEM, n).

The next experiment has as its target T3, human GIP receptor (Homo sapiens, UniProt P48546).
T3 construct: expressed in transfected cells; crude membranes
T3 sequence (P48546 22-466): T2 sequence (P48546 22-466)
Description: [125I]-GIP binding (SPA), human GIP receptor. The conditions noted are these: read-out: hGIPR Ki, nM (SEM, n).

Chain of human GLP-1 receptor (GLP-1R) (P43220 24-463): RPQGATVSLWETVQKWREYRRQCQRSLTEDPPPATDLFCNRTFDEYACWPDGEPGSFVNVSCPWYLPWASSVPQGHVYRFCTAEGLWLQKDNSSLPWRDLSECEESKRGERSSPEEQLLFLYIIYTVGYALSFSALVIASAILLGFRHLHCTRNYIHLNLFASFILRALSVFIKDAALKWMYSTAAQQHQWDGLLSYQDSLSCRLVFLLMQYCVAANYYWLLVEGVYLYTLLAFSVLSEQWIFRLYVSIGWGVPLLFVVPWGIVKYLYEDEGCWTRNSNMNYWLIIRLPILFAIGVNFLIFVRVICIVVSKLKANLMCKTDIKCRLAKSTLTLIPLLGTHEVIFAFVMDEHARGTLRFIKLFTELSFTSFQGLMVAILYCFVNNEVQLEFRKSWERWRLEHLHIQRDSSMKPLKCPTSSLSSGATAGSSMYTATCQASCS
Chain of human GLP-1R (P43220 24-463): as above
T1 sequence (P47871 26-477): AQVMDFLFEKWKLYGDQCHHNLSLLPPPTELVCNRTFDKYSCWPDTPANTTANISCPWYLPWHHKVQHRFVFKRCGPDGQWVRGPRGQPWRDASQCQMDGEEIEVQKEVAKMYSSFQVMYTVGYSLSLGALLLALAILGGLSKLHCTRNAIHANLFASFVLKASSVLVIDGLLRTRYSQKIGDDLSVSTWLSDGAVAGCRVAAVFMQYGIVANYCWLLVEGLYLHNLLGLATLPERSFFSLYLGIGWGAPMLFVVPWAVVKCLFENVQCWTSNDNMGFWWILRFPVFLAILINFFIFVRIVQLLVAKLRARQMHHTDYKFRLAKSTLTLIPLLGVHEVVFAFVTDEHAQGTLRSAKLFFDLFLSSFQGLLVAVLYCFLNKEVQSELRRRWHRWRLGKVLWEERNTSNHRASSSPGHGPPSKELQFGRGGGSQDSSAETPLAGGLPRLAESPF

As to `CC[C@H](C)[C@H](NC(=O)[C@H](CC(C)C)NC(=O)[C@H](Cc1ccc(O)cc1)NC(=O)[C@H](CCC(=O)O)NC(=O)[C@@H](NC(=O)[C@H](Cc1ccccc1)NC(=O)[C@H](C)NC(=O)C(C)(C)NC(=O)[C@H](CCC(N)=O)NC(=O)[C@H](C)NC(=O)[C@H](CCCCNC(=O)COCCOCCNC(=O)COCCOCCNC(=O)CC[C@H](NC(=O)CCCCCCCCCCCCCCCCCCC(=O)O)C(=O)O)NC(=O)[C@H](CCCCN)NC(=O)[C@H](CC(=O)O)NC(=O)[C@H](CC(C)C)NC(=O)[C@H](CC(C)C)NC(=O)[C@@H](NC(=O)[C@H](CO)NC(=O)[C@H](Cc1ccc(O)cc1)NC(=O)[C@H](CC(=O)O)NC(=O)[C@H](CO)NC(=O)[C@@H](NC(=O)[C@H](Cc1ccccc1)NC(=O)[C@@H](NC(=O)CNC(=O)[C@H](CCC(=O)O)NC(=O)C(C)(C)NC(=O)[C@@H](N)Cc1ccc(O)cc1)[C@@H](C)O)[C@@H](C)O)[C@@H](C)CC)[C@@H](C)CC)C(=O)N[C@@H](CCC(=O)O)C(=O)NCC(=O)NCC(=O)N1CCC[C@H]1C(=O)N[C@@H](CO)C(=O)N[C@@H](CO)C(=O)NCC(N)=O` [Example 50] (H-Y[Aib]EGTFTSDYSILLDKK([AEEA-AEEA-γGlu-C20 diacid])AQ[Aib]AFIEYLIEGGPSSG-NH2), the Ki (commonly a dissociation constant, usually derived from enzyme kinetics or from competition with a known ligand) at human GLP-1R amounted to 4.71 nM; at human Gcg receptor, 220 nM; on human GIP receptor it was 0.0568 nM. Moreover, the concentration giving a half-maximal response (EC50) (usually the midpoint of the concentration-response curve) in experiment [1] was determined as 0.0961 nM; in experiment [2], 0.0794 nM.
The like results for `CC[C@H](C)[C@H](NC(=O)[C@H](CC(C)C)NC(=O)[C@H](Cc1ccc(O)cc1)NC(=O)[C@H](CCC(=O)O)NC(=O)[C@@H](NC(=O)[C@H](Cc1ccccc1)NC(=O)[C@H](C)NC(=O)C(C)(C)NC(=O)[C@H](CCC(N)=O)NC(=O)[C@H](C)NC(=O)[C@H](CCCCNC(=O)COCCOCCNC(=O)COCCOCCNC(=O)CC[C@H](NC(=O)CCCCCCCCCCCCCCCCCCC(=O)O)C(=O)O)NC(=O)[C@H](CCCCN)NC(=O)[C@H](CC(=O)O)NC(=O)[C@H](CC(C)C)NC(=O)[C@H](CC(C)C)NC(=O)[C@@H](NC(=O)[C@H](CO)NC(=O)[C@H](Cc1ccc(O)cc1)NC(=O)[C@H](CC(=O)O)NC(=O)[C@H](CO)NC(=O)[C@@H](NC(=O)[C@H](Cc1ccccc1)NC(=O)[C@@H](NC(=O)CNC(=O)[C@H](CCC(=O)O)NC(=O)C(C)(C)NC(=O)[C@@H](N)Cc1ccc(O)cc1)[C@@H](C)O)[C@@H](C)O)[C@@H](C)CC)[C@@H](C)CC)C(=O)N[C@@H](CCC(=O)O)C(=O)NCC(=O)NCC(N)=O` [Example 51] (H-Y[Aib]EGTFTSDYSILLDKK([AEEA-AEEA-γGlu-C20 diacid])AQ[Aib]AFIEYLIEGG-NH2) were, in that order, 5.62 nM, 195 nM, 0.062 nM, 0.153 nM and 0.096 nM.
The like results for `CC[C@H](C)[C@H](NC(=O)[C@H](CC(C)C)NC(=O)[C@H](Cc1ccc(O)cc1)NC(=O)[C@H](CCC(=O)O)NC(=O)[C@@H](NC(=O)[C@H](Cc1ccccc1)NC(=O)[C@H](C)NC(=O)C(C)(C)NC(=O)[C@H](CCC(N)=O)NC(=O)[C@H](C)NC(=O)[C@H](CCCCNC(=O)COCCOCCNC(=O)COCCOCCNC(=O)CC[C@H](NC(=O)CCCCCCCCCCCCCCCCCCC(=O)O)C(=O)O)NC(=O)[C@H](CO)NC(=O)[C@H](CC(=O)O)NC(=O)[C@H](CC(C)C)NC(=O)[C@](C)(CC(C)C)NC(=O)[C@@H](NC(=O)[C@H](CO)NC(=O)[C@H](Cc1ccc(O)cc1)NC(=O)[C@H](CC(=O)O)NC(=O)[C@H](CO)NC(=O)[C@@H](NC(=O)[C@H](Cc1ccccc1)NC(=O)[C@@H](NC(=O)CNC(=O)[C@H](CCC(=O)O)NC(=O)C(C)(C)NC(=O)[C@@H](N)Cc1ccc(O)cc1)[C@@H](C)O)[C@@H](C)O)[C@@H](C)CC)[C@@H](C)CC)C(=O)N[C@@H](CCC(=O)O)C(=O)NCC(=O)NCC(=O)N1CCC[C@H]1C(=O)N[C@@H](CO)C(=O)N[C@@H](CO)C(=O)NCC(=O)N[C@@H](C)C(=O)N1CCC[C@H]1C(=O)N1CCC[C@H]1C(=O)N1CCC[C@H]1C(=O)N[C@@H](CO)C(N)=O` [Example 52] (H-Y[Aib]EGTFTSDYSI[αMeL]LDSK([AEEA-AEEA-γGlu-C20 diacid])AQ[Aib]AFIEYLIEGGPSSGAPPPS-NH2) were, in that order, 5.81 nM, greater than 1100 nM, 0.0342 nM, 0.132 nM and 0.0997 nM.
The like results for `CC[C@H](C)[C@H](NC(=O)[C@H](CC(C)C)NC(=O)[C@H](Cc1ccc(O)cc1)NC(=O)[C@H](CCC(=O)O)NC(=O)[C@@H](NC(=O)[C@H](Cc1ccccc1)NC(=O)[C@H](C)NC(=O)C(C)(C)NC(=O)[C@H](CCC(N)=O)NC(=O)[C@H](C)NC(=O)[C@H](CCCCNC(=O)COCCOCCNC(=O)COCCOCCNC(=O)CC[C@H](NC(=O)CCCCCCCCCCCCCCCCCCC(=O)O)C(=O)O)NC(=O)[C@H](CCCCN)NC(=O)[C@H](CC(=O)O)NC(=O)[C@H](CC(C)C)NC(=O)[C@](C)(CC(C)C)NC(=O)[C@@H](NC(=O)[C@H](CO)NC(=O)[C@H](Cc1ccc(O)cc1)NC(=O)[C@H](CC(=O)O)NC(=O)[C@H](CO)NC(=O)[C@@H](NC(=O)[C@H](Cc1ccccc1)NC(=O)[C@@H](NC(=O)CNC(=O)[C@H](CCC(=O)O)NC(=O)C(C)(C)NC(=O)[C@@H](N)Cc1c[nH]cn1)[C@@H](C)O)[C@@H](C)O)[C@@H](C)CC)[C@@H](C)CC)C(=O)N[C@@H](CCC(=O)O)C(=O)NCC(=O)NCC(=O)N1CCC[C@H]1C(=O)N[C@@H](CO)C(=O)N[C@@H](CO)C(=O)NCC(=O)N[C@@H](C)C(=O)N1CCC[C@H]1C(=O)N1CCC[C@H]1C(=O)N1CCC[C@H]1C(=O)N[C@@H](CO)C(N)=O` [Example 53] (H-H[Aib]EGTFTSDYSI[αMeL]LDKK([AEEA-AEEA-γGlu-C20 diacid])AQ[Aib]AFIEYLIEGGPSSGAPPPS-NH2; N-terminus assumed) were, in that order, 1.23 nM, 216 nM, 0.188 nM, 0.0339 nM and 0.628 nM.
Take `CC[C@H](C)[C@H](NC(=O)[C@H](CC(C)C)NC(=O)[C@H](Cc1ccc(O)cc1)NC(=O)[C@H](CCC(=O)O)NC(=O)[C@@H](NC(=O)[C@H](Cc1ccccc1)NC(=O)[C@H](C)NC(=O)[C@H](Cc1c[nH]cn1)NC(=O)[C@H](CCC(N)=O)NC(=O)[C@H](C)NC(=O)[C@H](CCCCNC(=O)COCCOCCNC(=O)COCCOCCNC(=O)CC[C@H](NC(=O)CCCCCCCCCCCCCCCCCCC(=O)O)C(=O)O)NC(=O)[C@H](CCCCN)NC(=O)[C@H](CC(=O)O)NC(=O)[C@H](CC(C)C)NC(=O)[C@](C)(CC(C)C)NC(=O)[C@@H](NC(=O)[C@H](CO)NC(=O)[C@H](Cc1ccc(O)cc1)NC(=O)[C@H](CC(=O)O)NC(=O)[C@H](CO)NC(=O)[C@@H](NC(=O)[C@H](Cc1ccccc1)NC(=O)[C@@H](NC(=O)CNC(=O)[C@H](CCC(=O)O)NC(=O)C(C)(C)NC(=O)[C@@H](N)Cc1c[nH]cn1)[C@@H](C)O)[C@@H](C)O)[C@@H](C)CC)[C@@H](C)CC)C(=O)N[C@@H](CCC(=O)O)C(=O)NCC(=O)NCC(=O)N1CCC[C@H]1C(=O)N[C@@H](CO)C(=O)N[C@@H](CO)C(=O)NCC(=O)N[C@@H](C)C(=O)N1CCC[C@H]1C(=O)N1CCC[C@H]1C(=O)N1CCC[C@H]1C(=O)N[C@@H](CO)C(N)=O` [Example 54] (H-H[Aib]EGTFTSDYSI[αMeL]LDKK([AEEA-AEEA-γGlu-C20 diacid])AQHAFIEYLIEGGPSSGAPPPS-NH2): the values for the Ki at human GLP-1R, at human Gcg receptor and on human GIP receptor were 1.66 nM, 333 nM and 0.965 nM, respectively. The concentration for a half-maximal effect (EC50) turned out to be 0.0242 nM in experiment [1] and 1.57 nM in experiment [2].
